{"source": "paper PMC6269819", "about": "“Evaluation of the Biological Activity of Naturally Occurring 5,8-Dihydroxycoumarin” (Molecules, 2013)", "tested_on": "human lymphocytes", "assay": "Chromosome aberrations in human lymphocyte cultures in vitro", "assay_type": "cell-based", "conditions": "for CA per 100 cells (±S.E.M.): 24 h treatment, pooled two donors", "protocol": "Blood samples were taken from two healthy female volunteers (donor A) and (donor B). Whole peripheral blood was grown in HEPES-buffered RPMI 1640 medium supplemented with 12% heat-inactivated newborn calf serum, 7.8 μg/mL phytohemagglutinin P, 50 μg/mL gentamycin, 10 μg/mL 5-bromo-2'-deoxyuridine. All reagents used for the cell culture were purchased from Sigma-Aldrich Chemical Co. (St. Louis, MO, USA). Cell cultures were incubated at 37 °C for 72 h. Treatment with test compounds was carried out 48 h after culture initiation and lasted for the period of 24 h. Dose range of 5,8-DHC (10 to 40 µg/mL) was based on pilot experiments (data not shown). As whole blood cultures display many properties common with the liver microsomal cytochrome P450 system, no external metabolising enzymes were added. 5,8-DHC was dissolved in ethanol and then diluted with RPMI 1640 medium to the desired concentration. Ethanol in a final concentration of 7.5µL/mL was used as a solvent control. […] Working solutions were made just before treatment. Two parallel cultures were used for each concentration of the compound tested. Two cultures were left untreated and served as a blank control. Methyl methanesulfonate (MMS) in a final concentration of 0.02 μL/mL was used as a positive control. The cultures were exposed to colchicine at a final concentration of 0.6 μg/mL for the last 3 h of incubation. The cells were harvested, hypotonically swollen in 0.075 M KCl and fixed in methanol: acetic acid (3:1). Air-dried slides were differentially stained by fluorescence plus Giemsa technique as has been described previously. Briefly, the slides were stained for 10 min. with 10 μg/mL of Hoechst 33258 dye (dissolved in 0.07 M Soerensen’s buffer, pH 6.8). Then the slides were rinsed, mounted with citrate buffer (pH 8.5), covered with cover slips and exposed to UV light (400 W mercury lamp at a distance of 15 cm) for 6–7 min. Slides were then rinsed and stained for 3–4 min. with 5% Giemsa. Cytogenetic analysis was performed on coded slides. No less than 100 first-mitotic division metaphases per culture were analysed for CAs, and no less than 50 second-division metaphases for SCEs.", "note": "Marks after values point to notes of the source that are not given here.", "data": [{"smiles": "O=c1ccc2c(O)ccc(O)c2o1", "note": "[5,8-DHC, 5,8-Dihydroxycoumarin]", "values": [{"measurement": "CA per 100 cells (±S.E.M.)", "setting": "10 µg/mL", "result": "1.5 ± 0.9", "unit": "per 100 cells"}, {"measurement": "CA per 100 cells (±S.E.M.)", "setting": "15 µg/mL", "result": "3.0 ± 1.2", "unit": "per 100 cells"}, {"measurement": "CA per 100 cells (±S.E.M.)", "setting": "20 µg/mL", "result": "3.5 ± 1.3", "unit": "per 100 cells"}, {"measurement": "CA per 100 cells (±S.E.M.)", "setting": "25 µg/mL", "result": "6.5 ± 1.7", "unit": "per 100 cells"}, {"measurement": "CA per 100 cells (±S.E.M.)", "setting": "30 µg/mL", "result": "7.0 ± 1.8", "unit": "per 100 cells"}, {"measurement": "CA per 100 cells (±S.E.M.)", "setting": "35 µg/mL", "result": "7.0 ± 1.8", "unit": "per 100 cells"}, {"measurement": "CA per 100 cells (±S.E.M.)", "setting": "40 µg/mL", "result": "9.5 ± 2.1 ^b per 100 cells"}, {"measurement": "concentration giving statistically significant increase of CAs", "setting": "highest concentration only", "result": 40, "unit": "µg/mL"}]}]}
